From patent US7279542B2, “Polymeric particles and fragrance delivery systems” (Firmenich SA, priority 2003, dated 2007)
Like-named read-outs stand apart in the source and are kept apart here.

How the values were obtained:
[1] = LogP of fragrance raw materials (partition coefficient between octanol and water); format: physicochemical
[2] = Swelling of micro-capsules with single fragrance raw materials (mass fraction in swollen micro-capsule); format: physicochemical; details: micro-capsules of Example 4 swelled with excess raw material, 1 to 3 days
Description: The capsules were allowed to swallow with an excess of the model-perfume (see Example 1) during 1 to 3 days. The swelled micro-particles were then separated from the remaining perfume by filtration and washed with ethanol. This experiment was repeated for various raw materials having various chemical functionalities or various polarities (i.e. LogP, P being the partition coefficient between octanol and water).

[3] = P = partition coefficient between octanol and water, read-out: LogP

logP [1] | Fragrance mass fraction in the final swollen micro-capsule weight [%] [2] [%] | logP [1, 3] | Compound
5.37 | 50.3 | – | O=C1CCCCCCCCC/C=C/CCCO1 [Habanolide ®, pentadecenolide]
– | 50.7 | 4.91 | CCCCCCOC(=O)c1ccccc1O [Hexyl salicylate]
– | 36.2 | 3.59 | CC(C)=CCC/C(C)=C/CO [Geraniol]
– | 49.8 | 1.57 | CC(=O)OCc1ccccc1 [Benzyl acetate]
